Assay results reported in patent US8680111B2 (Pfizer Inc., priority 2012, dated 2014).
Where two headings read alike, the source gives them in different places.

Key:
[1] = cc_pd bond
[2] = biological target: T1, human recombinant wild-type ALK kinase domain (amino acids 1093-1411) (Homo sapiens, UniProt Q9UM73); assay: Wild-type ALK enzyme assay (microfluidic mobility shift); format: biochemical; conditions: ATP 60 μM, competitive inhibition fit, read-out: WT ALK enzyme assay (Ki)
T1 construct: ALK kinase domain (amino acids 1093-1411); made in house
Procedure: The reactions were incubated for 1 h at room temperature, stopped by the addition of 0.1 M EDTA, pH 8, and the extent of reactions (˜15-20% conversion with no inhibitor) was determined after electrophoretic separation of the fluorescently labeled peptide substrate and phosphorylated product on an LabChip EZ Reader II (Caliper Life Sciences, Hopkinton, Mass.).

[3] = biological target: T2, human recombinant L1196M ALK kinase domain (amino acids 1093-1411) (Homo sapiens, UniProt Q9UM73, L1196M); assay: L1196M mutant ALK enzyme assay (microfluidic mobility shift); format: biochemical; conditions: ATP 60 μM, 0.5 nM enzyme, competitive inhibition fit; read-out: L1196M ALK enzyme assay (Ki)
T2 construct: ALK kinase domain (amino acids 1093-1411); made in house

[4] = biological target: T3, WT EML4-ALK (NIH-3T3 EML4-ALK wt v1 cells) (Homo sapiens, UniProt Q9UM73); assay: Cellular phospho-ALK (Tyr1604) ELISA assay for WT EML4-ALK; format: cell-based; conditions: 1 hour, read-out: ELISA assay for WT EML4-ALK (IC50)
T3 construct: expressed in transfected cells; the other entry of the earlier key: EML4 (Q9HC35, Echinoderm microtubule-associated protein-like 4)
Procedure: (§1) Cellular Phospho-ALK (Tyr1604) ELISA Assay for EML4-ALK:
(§2) The cells were maintained at 37° C. in a 5% CO2 incubator in DMEM (Invitrogen, Carlsbad, Calif.) medium supplemented with 1% L-glutamine, 1% penicillin and streptomycin, 1 ug/ml puromycin and 10% new born calf serum (NCS) in T-75 flasks.
(§3) Cells were washed with PBS and re-suspended in DMEM medium supplemented with 0.5% NCS and 1% pen/strep and seeded into 96-well plates at density of 20,000 cells/well/100 μl and incubated in the incubator at 37° C. and 5% CO2. After 20 hours of incubation, 100 μl of assay media (DMEM) in presence of designated PF-compounds concentrations or controls (DMSO) were added into plates and incubated for 1 hour in the incubator. Media was then removed and lysis buffer, containing phosphatase inhibitors and phenylmethanesulfonyl fluoride (PMSF), was added to wells and shaken at 4° C. for 30 minutes to generate protein lysates.
(§4) A phospho-ALK (Tyr1604) rabbit antibody was coated onto the 96-well microplates. 50 μl of cell lysates were added to the antibody coated plate and incubated at room temperature for 2 hours. Following extensive washing with 0.1% Tween 20 in PBS to remove unbound materials, ALK mouse mAb was added to detect captured phospho-ALK (Tyr1604) and phospho-ALK fusion proteins. Anti-mouse IgG, HRP-linked antibody was then used to recognize the bound detection antibody. Finally, the chemiluminescent reagent was added and incubated for 10 minutes for signal development. The assay plates were read in the Envision plate reader in the luminescent mode. IC50 values were calculated by a concentration-response curve fitting using a four-parameter analytic method.

[5] = biological target: T4, L1196M EML4-ALK (NIH-3T3 EML4-ALK v1 L1196M cells) (Homo sapiens, UniProt Q9UM73, L1196M); assay: Cellular phospho-ALK (Tyr1604) ELISA assay for L1196M EML4-ALK; format: cell-based; conditions: NIH-3T3 EML4-ALK v1 L1196M cells, 1 hour, phospho-ALK (Tyr1604); read-out: ELISA assay for L1196M EML4-ALK (IC50)
T4 construct: expressed in transfected cells; the other entry of the earlier key: EML4 (Q9HC35, Echinoderm microtubule-associated protein-like 4)
Procedure: as §1, §2, §3, §4

[6] = cc_pd bond, 12-membered ring, Pd(OAc)2/cataCXium A/KOAc, t-AmOH, 120.0 °C
[7] = 12-membered ring

| Structure (SMILES) | Ki [2] [nM] | Ki [3] [nM] | IC50 [4] [nM] | IC50 [5] [nM] | further results |
| --- | --- | --- | --- | --- | --- |
| C[C@H]1Oc2nc(cnc2N)-c2c(nc3ccc(C#N)cn23)CN(C)C(=O)c2ccc(F)cc21 | – | – | – | – | ring closure, yield after HPLC (cc_pd bond, 12-membered ring, cataCXium/t-AmOH/KOAc, DMAc, 11.9 mM, 110.0 °C): 12% |
| Cc1cnc2nc3c(n2c1)-c1cnc(N)c(n1)O[C@H](C)c1cc(F)ccc1C(=O)N(C)C3 | – | – | – | – | ring closure, yield of all isomers ([1]; from Cc1cnc2nc(CN(C)C(=O)c3ccc(F)cc3[C@@H](C)Oc3nc(Br)cnc3N)cn2c1, Pd(OAc)2/cataCXium A, KOAc, tert-amyl alcohol, 30.0 mM, 120.0 °C, 2.0 h): 50% |
| Cc1cnc2nc3cn2c1-c1cnc(N)c(n1)O[C@H](C)c1cc(F)ccc1C(=O)N(C)C3 | – | – | – | – | ring closure, yield after HPLC (cc_pd bond, Pd(OAc)2/cataCXium A/KOAc, t-amyl alcohol, 30.0 mM, 120.0 °C): 7% |
| Cc1nn(C)c2c1-c1cnc(N)c(n1)OC(C)c1cc(F)ccc1C(=O)N(C)C2 (stereo not shown) | – | – | – | – | ring closure, yield of all isomers ([1]; from Cc1nn(C)c(CN(C)C(=O)c2ccc(F)cc2C(C)Oc2nc(Br)cnc2N)c1Br, Pd(OAc)2 / di(1-adamantyl)-n-butylphosphine, bis(pinacolato)diboron, CsF, MeOH, 42.4 mM, 100.0 °C, 8.5 h, 2 steps): 6% |
| COc1nccc2c1-c1cnc(N)c(c1)OC(C)c1cc(F)ccc1C(=O)N(C)C2 (stereo not shown) [Example 45, 8-amino-13-fluoro-4-methoxy-11,17-dimethyl-17,18-dihydro-9,5-(metheno)pyrido[3,4-h][2,5,11]benzoxadiazacyclotetradecin-16(11H)-one] | > 3000 | 500 | – | – | ring closure, yield after HPLC (amide bond, 12-membered ring, CMPI/DIEA, DMA, 10.0 mM, 0.0 °C): 4% |
| C[C@H]1Oc2nc(cnc2N)-c2c(nn(C)c2C#N)CN(C)C(=O)c2ccccc21 [Example 70, (10R)-7-amino-2,10,16-trimethyl-15-oxo-10,15,16,17-tetrahydro-2H-8,4-(azeno)pyrazolo[4,3-h][2,5,11]benzoxadiazacyclotetradecine-3-carbonitrile] | < 0.16 | 0.96 | 6.52 | 78.5 | ring closure, yield after HPLC (from C[C@@H](Oc1nc(Br)cnc1N)c1ccccc1C(=O)N(C)Cc1cc(C#N)n(C)n1, cc_pd bond, 12-membered ring, Pd(OAc)2/cataCXium A/KOAc, t-amyl alcohol, 48.7 mM, 120.0 °C): 32%; ring closure, yield of all isomers ([1]; from C[C@@H](Oc1nc(Br)cnc1N)c1ccccc1C(=O)N(C)Cc1cc(C#N)n(C)n1, Pd(OAc)2/cataCXium A, KOAc, tert-amyl alcohol, 48.7 mM, 120.0 °C, 3.0 h): 32% |
| C[C@H]1Oc2cc(cnc2N)-c2c(nn(C)c2C#N)CN(C)C(=O)c2ccccc21 [Example 71, (10R)-7-amino-2,10,16-trimethyl-15-oxo-10,15,16,17-tetrahydro-2H-8,4-(metheno)pyrazolo[4,3-h][2,5,11]benzoxadiazacyclotetradecine-3-carbonitrile] | < 0.249 | 3.73 | 10.2 | 169 | ring closure, yield after HPLC (cc_pd bond, 12-membered ring, B2pin2/Pd(OAc)2/cataCXium A/CsF, MeOH/H2O, 12.7 mM, 100.0 °C): 13% |
| C[C@H]1Oc2nc(cnc2N)-c2c(C(N)=O)noc2CN(C)C(=O)c2ccc(F)cc21 [Example 72, (10R)-7-amino-12-fluoro-10,16-dimethyl-15-oxo-10,15,16,17-tetrahydro-8,4-(azeno)[1,2]oxazolo[4,5-h][2,5,11]benzoxadiazacyclotetradecine-3-carboxamide] | 5.1 | 28 | 347 | 4270 | ring closure, yield after HPLC (cc_pd bond, 12-membered ring, Pd(OAc)2/cataCXium A/KOAc/PivOH, DMA, […], 120.0 °C): 12% |
| C[C@H]1Oc2nc(cnc2N)-c2c(C#N)noc2CN(C)C(=O)c2ccc(F)cc21 [Example 73, (10R)-7-amino-12-fluoro-10,16-dimethyl-15-oxo-10,15,16,17-tetrahydro-8,4-(azeno)[1,2]oxazolo[4,5-h][2,5,11]benzoxadiazacyclotetradecine-3-carbonitrile] | 0.33 | 2.4 | 12.8 | 169 | ring closure, yield after HPLC (cc_pd bond, 12-membered ring, Pd(OAc)2/cataCXium A/KOAc/PivOH, DMA, 49.9 mM, 120.0 °C): 21% |
| CCc1noc2c1-c1cnc(N)c(c1)O[C@H](C)c1cc(F)ccc1C(=O)N(C)C2 [Example 81, (10R)-7-amino-3-ethyl-12-fluoro-10,16-dimethyl-16,17-dihydro-8,4-(metheno)[1,2]oxazolo[4,5-h][2,5,11]benzoxadiazacyclotetradecin-15(10H)-one] | < 1.88 | 3.9 | 2.25 | 52 | ring closure, yield after HPLC (cc_pd bond, 12-membered ring, Pd(OAc)2/cataCXium A/KOAc/PivOH, DMA, 50.0 mM, […]): 6% |
| C[C@H]1Oc2cc(cnc2N)-c2c(n[nH]c2C#N)CN(C)C(=O)c2ccc(F)cc21 [Example 88, (10R)-7-amino-12-fluoro-10,16-dimethyl-15-oxo-10,15,16,17-tetrahydro-2H-8,4-(metheno)pyrazolo[4,3-h][2,5,11]benzoxadiazacyclotetradecine-3-carbonitrile] | 0.2 | 0.39 | 15.5 | 191 | ring closure, yield after HPLC (amide bond, 12-membered ring, HATU/DIEA, DMF, 8.3 mM, 0.0 °C): 12% |
| C[C@H]1Oc2nc(cnc2N)-c2c(noc2C#N)CN(C)C(=O)c2ccc(F)cc21 [Example 99, (10R)-7-amino-12-fluoro-10,16-dimethyl-15-oxo-10,15,16,17-tetrahydro-8,4-(azeno)[1,2]oxazolo[4,3-h][2,5,11]benzoxadiazacyclotetradecine-3-carbonitrile] | 3.2 | 11.7 | 52.4 | 531 | ring closure, conversion ([6]; 21.0 mM): 30%; ring closure, yield after HPLC (cc_pd bond, 12-membered ring, Pd(OAc)2/cataCXium A/KOAc, t-AmOH, 21.0 mM, 120.0 °C): 9% |
| C[C@H]1Oc2cc(cnc2N)-c2c(noc2C#N)CN(C)C(=O)c2ccc(F)cc21 [Example 100, (10R)-7-amino-12-fluoro-10,16-dimethyl-15-oxo-10,15,16,17-tetrahydro-8,4-(metheno)[1,2]oxazolo[4,3-h][2,5,11]benzoxadiazacyclotetradecine-3-carbonitrile] | 3.1 | 24.2 | 146 | 1480 | ring closure, isolated yield ([7]; cc_pd bond, Pd(OAc)2/cataCXium A/KOAc, t-AmOH, 17.9 mM, 120.0 °C): 15%; ring closure, conversion ([6]; 17.9 mM): 30% |
| C[C@H]1Oc2nc(cnc2N)-c2c(nn(C)c2C#N)CN(C)C(=O)c2c(F)cc(F)cc21 [Example 101, (10R)-7-amino-12,14-difluoro-2,10,16-trimethyl-15-oxo-10,15,16,17-tetrahydro-2H-8,4-(azeno)pyrazolo[4,3-h][2,5,11]benzoxadiazacyclotetradecine-3-carbonitrile] | 0.12 | 0.41 | 0.92 | 8.77 | ring closure, isolated yield ([7]; cc_pd bond, Pd(OAc)2/cataCXium A/KOAc, t-amyl alcohol, 50.0 mM, 120.0 °C): 53%; ring closure, yield of all isomers ([1]; from C[C@@H](Oc1nc(Br)cnc1N)c1cc(F)cc(F)c1C(=O)N(C)Cc1cc(C#N)n(C)n1, Pd(OAc)2/cataCXium A/KOAc, tert-amyl alcohol, 50.0 mM, 120.0 °C, 2.0 h): 53% |
| C[C@H]1Oc2nc(cnc2N)-c2c(nn(C)c2C#N)CNC(=O)c2ccc(F)cc21 [Example 102, (10R)-7-amino-12-fluoro-2,10-dimethyl-15-oxo-10,15,16,17-tetrahydro-2H-8,4-(azeno)pyrazolo[4,3-h][2,5,11]benzoxadiazacyclotetradecine-3-carbonitrile] | 0.33 | 1.41 | 11.6 | 83.8 | ring closure, isolated yield ([7]; amide bond, KOH, MeOH, […], 2 steps): 28% |
